Reference: ChEMBL document CHEMBL3988442, “University of Dundee, Small-Polar-MMV Screening Library” (2021)

Experiments:
[1] = microbe, parasite or virus in culture; settings: Mycobacterium tuberculosis, 96 h, read-out: pIC50 (converted)
[2] = microbe, parasite or virus in culture; settings: Mycobacterium tuberculosis, 72 h, read-out: pIC50 (converted)

Compound | IC50 [1] | IC50 [2]
CCCN(CCO)CC(=O)N1CCCC(C)C1 (stereo unspecified) | > 501 µM | > 501 µM
Cc1ccnc(NCCS(=O)(=O)NCC2CCC2)c1 | 117 µM | 265 µM
CSc1ccc(C(CN)N(C)C)cc1 (stereo unspecified) | 319 µM | 215 µM
O=C1OCCC1Sc1nnc(Nc2ccccc2)s1 (stereo unspecified) | > 501 µM | 455 µM
CCCOCCNC(=O)c1cc(C(F)(F)F)n[nH]1 | 43.8 µM | 54.8 µM
CN(C)S(=O)(=O)c1cccc(CN2CCCC2)c1 | > 501 µM | > 501 µM
CCNc1ncc(C(=O)N(C)Cc2ccsc2)cn1 | > 501 µM | > 501 µM
COc1ccc(NC(=O)N2CCCN(C)CC2)cc1F | > 501 µM | > 501 µM
COC(=O)CCNS(=O)(=O)c1ccc(OC)cc1 | > 501 µM | > 501 µM
C=C(C)c1nc(C#N)c(NCc2ccco2)o1 | 170 µM | 142 µM
Ic1nnnn1-c1ccccc1 | 108 µM | 147 µM
CN(Cc1cccc(C(N)=O)c1)C(=O)c1occc1Br | > 501 µM | > 501 µM
CC(=O)NCC1CNCCO1 (stereo unspecified) | > 501 µM | > 501 µM
CN(C)c1ccc(C(=O)N(C)C2(C#N)CCC2)cc1F | > 501 µM | > 501 µM
COc1ccc(C(=O)N(C)CCn2cccn2)cc1 | > 501 µM | > 501 µM
NC1CCN(c2ccc(C(F)(F)F)cn2)CC1 | 139 µM | 91.6 µM
Cc1csc(NC(=O)C(C)Oc2ccc3c(c2)OCO3)n1 (stereo unspecified) | 1.63 µM | 30.5 µM
COCCC(=O)N1CCC(Nc2ncccc2Br)CC1 | 288 µM | > 501 µM
NCCCN1CCN(c2ccccc2F)CC1 | > 501 µM | > 501 µM
NC1CCN(Cc2ccccc2F)CC1 | > 501 µM | > 501 µM
NCC(O)c1ccc(Cl)cc1Cl (stereo unspecified) | > 501 µM | 304 µM
O=C(c1cccc2cc[nH]c12)N1CCSCC1 | > 501 µM | > 501 µM
NCCSCc1ccccc1F | 275 µM | 231 µM
CC(C)N(C)S(=O)(=O)NCCCN(C)c1ccccc1 | 216 µM | 193 µM
O=c1oc(-c2ccc(F)cc2)nn1CC1CCCCO1 (stereo unspecified) | > 50.1 µM | 0.609 µM
NC(=O)CSc1nc(-c2ccc(Br)cc2)c[nH]1 | 260 µM | 160 µM

Compound | IC50 [1] | IC50 [2]
CCc1ncc(C(=O)N2CCN(c3nccs3)CC2)s1 | > 501 µM | 79.4 µM
COc1ccnc(CN2CCCC(CCc3ccc(F)cc3)C2)c1OC (stereo unspecified) | 20.9 µM | 34.7 µM
NCCc1ccc2cc[nH]c2c1 | > 501 µM | 212 µM
Cn1cc(CNC(=O)C2CSc3ccccc3O2)cn1 (stereo unspecified) | > 501 µM | 218 µM
COCCNC(=O)COc1ccc2c(c1)OCO2 | 62.9 µM | 128 µM
COc1cc(OC)cc(C2(F)CCNCC2)c1 | 287 µM | 226 µM
O=C1N(Cc2ccccc2)CCN1S(=O)(=O)Cl | 248 µM | 259 µM
COc1ccc(C(=O)Nc2nonc2NC(C)=O)cc1 | 96.4 µM | > 501 µM
CN(CC1CCOCC1)C(=O)NCc1ccco1 | 125 µM | 95.8 µM
Cc1ccc(NC2CCN(C(=O)C(C)n3cncn3)CC2)nn1 (stereo unspecified) | > 50.1 µM | > 50.1 µM
O=C(Nc1ccccn1)c1csc(NC2CCCC2)n1 | 26.1 µM | 46.7 µM
CCCc1nc(N2CCCCC2)c2c(n1)c(C)nn2CC | 39.3 µM | 38.4 µM
CCc1ccc2c(c1)[C@@H](N)CCO2 | > 501 µM | > 501 µM
CN(C)c1cc(CN)c2ccccc2n1 | 132 µM | 97.3 µM
Cc1nc(N)cc(N2CCCC(COc3cccc(F)c3)C2)n1 (stereo unspecified) | 27.9 µM | 46 µM
CC(N)c1nc(-c2ccc(Br)cc2)c[nH]1 (stereo unspecified) | 242 µM | 99.7 µM
CC1Cc2ccccc2N1C(=O)c1ccccn1 (stereo unspecified) | > 501 µM | > 501 µM
COc1cc(CN)cc(Br)c1OC | > 501 µM | 78.5 µM
Cc1[nH]c(=O)[nH]c(=O)c1CN1CCCC(CCc2ccc(F)cc2F)C1 (stereo unspecified) | > 50.1 µM | > 50.1 µM
Cn1ccnc1N1CCN(c2ccc(C#N)cn2)CC1 | > 501 µM | > 501 µM
CCc1ccccc1OC1CN(C(=O)c2cccs2)C1 | 14.2 µM | 5.46 µM
CN(CCN1CCCC1)S(=O)(=O)c1ccccc1 | > 501 µM | 208 µM
O=C(NCCN1CCCC1)c1csc(-c2ccco2)n1 | 224 µM | 201 µM
O=C(Nc1ccc(Cl)cn1)c1ccncc1 | > 501 µM | 304 µM
CCCc1nn(Cc2csc(C(C)C)n2)c(=O)o1 | 20.4 µM | 3.08 µM
CN1CCCC(c2cccc(-c3cccc(C(F)(F)F)c3)n2)C1 (stereo unspecified) | 3.45 µM | 2.88 µM

Compound | IC50 [1] | IC50 [2]
CN1CCN(C(=O)c2cnsn2)c2ccccc21 | > 501 µM | > 501 µM
Cc1ccc(N2CCN(C(=O)CCC(F)(F)F)C(C)C2)cc1 (stereo unspecified) | > 50.1 µM | > 50.1 µM
COc1cccc(F)c1C(C)NC(=O)c1nccn1C (stereo unspecified) | 252 µM | 322 µM
CN(C)C(=O)c1cc(-c2cccs2)on1 | 254 µM | > 501 µM
OCCCN1CCC(=Cc2ccccc2)CC1 | 250 µM | 277 µM
CCN(Cc1cnn(C)c1)C[C@H]1CC[C@@H](Cc2cccc(CN)c2)O1 | > 50.1 µM | > 50.1 µM
COc1coc(CN2CCCC(CCc3ccc(F)c(F)c3)C2)cc1=O (stereo unspecified) | 14.3 µM | > 50.1 µM
O=C(Nc1nnc(-c2cccs2)s1)NC1CCCNC1 (stereo unspecified) | > 501 µM | 127 µM
COC(=O)[C@H](C)NC(=O)C1(c2ccccc2F)CC1 | > 501 µM | 187 µM
COC(=O)[C@H](C)NC(=O)c1noc2c1CCCCC2 | > 501 µM | 238 µM
CCOC(=O)N1CCC(NC(=O)c2ccsc2)CC1 | > 501 µM | 137 µM
c1ccc(Cc2cccc(C3CCCN3C3CCOCC3)n2)cc1 (stereo unspecified) | > 50.1 µM | 13.2 µM
COc1ccc(CCN)c(OC)c1OC | 55.6 µM | 36.1 µM
CC(C)N(C)S(=O)(=O)N(Cc1cccs1)Cc1cccs1 | > 50.1 µM | 24.8 µM
CCC(=O)c1ccc(CN)cc1 | 264 µM | > 501 µM
O=C(NCc1ccc2c(c1)OCO2)Nc1nccs1 | > 501 µM | > 501 µM
O=C(CCNCCO)c1ccccc1 | > 501 µM | 137 µM
CCCn1nnnc1NCc1ccsc1 | 132 µM | 171 µM
CCNC(=O)CNc1ccc(Br)cc1 | 210 µM | 162 µM
O=C(c1cccs1)N1CCC2(CC1)CN(c1ccsc1)C(=O)CO2 | > 50.1 µM | > 50.1 µM
CCOC(=O)c1ccccc1N1C(=O)C=CC1=O | 83.7 µM | 60.4 µM
CCC(=O)Nc1nnc2n(Cc3cccc(OC)c3)[nH]c(C)c1-2 | > 50.1 µM | > 50.1 µM
Cn1ccc(CNC(=O)NCC2CC2)c1 | > 501 µM | > 501 µM
COCCC(C)Nc1c[nH]nc1-c1ccccn1 (stereo unspecified) | > 501 µM | 201 µM
CC(C)C(C)N(C)Cc1nnc(-c2ccc(Br)s2)o1 (stereo unspecified) | 20.4 µM | 48.4 µM
c1ccc(CN2CCCN(c3ccccn3)CC2)nc1 | 236 µM | 196 µM
